Biological target: rPASP (Pseudomonas aeruginosa small protease) (Pseudomonas aeruginosa, UniProt Q9I690)
Assay: fluorescein-gelatin hydrolysis, fluorescence
Type: biochemical
Conditions: fluorescein-conjugated gelatin substrate; rPASP 10 ug; 24 h, 37 °C

rPASP (Pseudomonas aeruginosa small protease), sequence (Q9I690 whole entry): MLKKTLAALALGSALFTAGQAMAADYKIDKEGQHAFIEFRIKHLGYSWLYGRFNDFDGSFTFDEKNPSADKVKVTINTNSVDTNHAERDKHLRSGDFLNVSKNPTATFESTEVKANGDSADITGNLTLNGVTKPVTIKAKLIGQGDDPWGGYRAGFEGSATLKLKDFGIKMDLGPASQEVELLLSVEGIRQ

Cc1ccc(S(=O)(=O)N[C@@H](CCCCN)C(=O)CCl)cc1 [TLCK]
dose-dependent inhibition: Only TLCK demonstrated dose-dependent inhibition of rPASP activity

Reference: publication PMC2874894 (Investigative ophthalmology & visual science, 2009)
